The term Kd denotes the constant that tells how readily two partners part at equilibrium.

This note sets out measurements from ChEMBL document CHEMBL3991601, “The target landscape of clinical kinase drugs” (Science, 2017).

Among the targets are Midasin (Homo sapiens, UniProt Q9NU22); Ephrin type-A receptor 2 (Homo sapiens, UniProt P29317); Myosin-14 (Homo sapiens, UniProt Q7Z406); Activated CDC42 kinase 1 (Homo sapiens, UniProt Q07912).
In assay [1] the target is T1, Serine/threonine-protein kinase Nek9 (Homo sapiens, UniProt Q8TD19).
T1 sequence (Q8TD19 whole entry): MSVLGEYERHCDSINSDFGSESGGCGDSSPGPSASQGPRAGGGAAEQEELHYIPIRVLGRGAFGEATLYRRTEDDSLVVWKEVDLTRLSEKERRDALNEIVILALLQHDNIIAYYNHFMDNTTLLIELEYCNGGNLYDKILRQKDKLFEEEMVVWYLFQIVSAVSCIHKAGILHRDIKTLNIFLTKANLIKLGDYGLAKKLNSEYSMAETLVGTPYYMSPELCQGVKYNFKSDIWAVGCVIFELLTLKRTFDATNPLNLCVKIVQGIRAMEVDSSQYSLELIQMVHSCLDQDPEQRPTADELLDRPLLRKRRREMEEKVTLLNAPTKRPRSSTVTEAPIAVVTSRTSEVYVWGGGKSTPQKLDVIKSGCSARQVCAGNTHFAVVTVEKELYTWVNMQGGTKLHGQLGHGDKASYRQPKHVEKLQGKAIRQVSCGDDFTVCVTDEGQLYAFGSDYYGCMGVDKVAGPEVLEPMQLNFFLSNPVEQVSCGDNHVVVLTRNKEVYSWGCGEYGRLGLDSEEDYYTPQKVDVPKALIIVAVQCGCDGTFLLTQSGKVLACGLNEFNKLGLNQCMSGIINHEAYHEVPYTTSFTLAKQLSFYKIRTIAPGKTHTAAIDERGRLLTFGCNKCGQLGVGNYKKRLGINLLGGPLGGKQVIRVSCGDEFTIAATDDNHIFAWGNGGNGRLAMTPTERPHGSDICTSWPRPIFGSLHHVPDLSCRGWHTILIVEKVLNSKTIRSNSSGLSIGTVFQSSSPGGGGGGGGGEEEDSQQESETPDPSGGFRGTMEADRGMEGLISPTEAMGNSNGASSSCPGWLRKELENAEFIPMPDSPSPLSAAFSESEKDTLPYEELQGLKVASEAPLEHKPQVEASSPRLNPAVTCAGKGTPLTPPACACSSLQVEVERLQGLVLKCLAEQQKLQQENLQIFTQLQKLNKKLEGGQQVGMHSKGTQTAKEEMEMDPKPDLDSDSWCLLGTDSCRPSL

Assay [2] has as its target Ribosomal protein S6 kinase beta-1 (Homo sapiens, UniProt P23443).
In assay [3] the target is Inosine-5'-monophosphate dehydrogenase 2 (Homo sapiens, UniProt P12268).
Assay [4] has as its target Rho-associated protein kinase 1 (Homo sapiens, UniProt Q13464).
Assay [5] concerns the target RAC-gamma serine/threonine-protein kinase (Homo sapiens, UniProt Q9Y243).
In assay [6] the target is T2, Serine/threonine-protein kinase 4 (Homo sapiens, UniProt Q13043).
T2 sequence (Q13043 whole entry): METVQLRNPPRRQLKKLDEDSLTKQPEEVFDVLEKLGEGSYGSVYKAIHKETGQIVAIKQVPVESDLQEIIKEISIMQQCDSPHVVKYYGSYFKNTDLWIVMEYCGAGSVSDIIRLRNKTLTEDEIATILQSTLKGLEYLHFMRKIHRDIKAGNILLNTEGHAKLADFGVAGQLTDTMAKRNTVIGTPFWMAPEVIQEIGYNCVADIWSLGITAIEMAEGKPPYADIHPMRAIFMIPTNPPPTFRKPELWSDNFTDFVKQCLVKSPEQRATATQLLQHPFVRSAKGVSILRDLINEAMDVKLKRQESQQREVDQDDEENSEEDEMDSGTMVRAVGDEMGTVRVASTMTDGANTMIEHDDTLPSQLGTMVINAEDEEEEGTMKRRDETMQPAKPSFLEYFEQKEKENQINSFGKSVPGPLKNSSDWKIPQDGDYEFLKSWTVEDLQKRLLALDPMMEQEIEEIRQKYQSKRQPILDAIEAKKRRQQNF

Assay [7] addresses Serine/threonine-protein kinase N2 (Homo sapiens, UniProt Q16513).
Assay [8] has as its target Cyclin-dependent kinase 13 (Homo sapiens, UniProt Q14004).
Assay [9] deals with Tyrosine-protein kinase Fyn (Homo sapiens, UniProt P06241).
The target of assay [10] is Serine/threonine-protein kinase MRCK alpha (Homo sapiens, UniProt Q5VT25).
Assay [11] deals with Serine/threonine-protein kinase PAK 2 (Homo sapiens, UniProt Q13177).

Calls of active or inactive are those of the source. Rule as the data show it, for most assays here: actives have a measured Kd and inactives only a lower limit.
Also: in the data inactive means no Kd found up to 30 µM.

Sequence of Serine/threonine-protein kinase N2 (Q16513 whole entry): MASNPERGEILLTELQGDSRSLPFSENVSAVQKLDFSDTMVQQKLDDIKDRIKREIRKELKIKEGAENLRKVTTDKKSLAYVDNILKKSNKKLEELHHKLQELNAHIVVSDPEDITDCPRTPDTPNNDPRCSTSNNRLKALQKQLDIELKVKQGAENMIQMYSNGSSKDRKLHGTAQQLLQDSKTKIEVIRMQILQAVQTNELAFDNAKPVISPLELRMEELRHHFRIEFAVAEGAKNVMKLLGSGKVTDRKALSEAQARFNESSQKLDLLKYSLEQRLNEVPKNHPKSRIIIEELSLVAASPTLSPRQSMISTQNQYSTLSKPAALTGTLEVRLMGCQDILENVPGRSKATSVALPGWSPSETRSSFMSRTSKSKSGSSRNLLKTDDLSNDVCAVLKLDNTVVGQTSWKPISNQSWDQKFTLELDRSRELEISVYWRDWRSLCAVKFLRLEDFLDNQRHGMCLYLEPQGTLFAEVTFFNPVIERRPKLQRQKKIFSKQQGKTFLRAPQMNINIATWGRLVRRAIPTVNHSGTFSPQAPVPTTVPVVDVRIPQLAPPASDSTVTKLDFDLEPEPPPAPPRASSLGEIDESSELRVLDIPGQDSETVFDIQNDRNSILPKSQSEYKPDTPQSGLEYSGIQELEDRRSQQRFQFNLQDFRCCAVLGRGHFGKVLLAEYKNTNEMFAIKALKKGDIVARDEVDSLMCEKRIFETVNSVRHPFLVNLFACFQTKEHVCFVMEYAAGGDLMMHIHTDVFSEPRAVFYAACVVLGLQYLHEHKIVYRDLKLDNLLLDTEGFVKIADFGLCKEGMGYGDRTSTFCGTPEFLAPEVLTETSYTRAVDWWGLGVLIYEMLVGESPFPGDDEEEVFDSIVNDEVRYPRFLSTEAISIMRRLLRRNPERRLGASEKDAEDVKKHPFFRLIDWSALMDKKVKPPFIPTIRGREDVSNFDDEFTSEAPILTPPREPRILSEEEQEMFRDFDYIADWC
Sequence of Serine/threonine-protein kinase PAK 2 (Q13177 whole entry): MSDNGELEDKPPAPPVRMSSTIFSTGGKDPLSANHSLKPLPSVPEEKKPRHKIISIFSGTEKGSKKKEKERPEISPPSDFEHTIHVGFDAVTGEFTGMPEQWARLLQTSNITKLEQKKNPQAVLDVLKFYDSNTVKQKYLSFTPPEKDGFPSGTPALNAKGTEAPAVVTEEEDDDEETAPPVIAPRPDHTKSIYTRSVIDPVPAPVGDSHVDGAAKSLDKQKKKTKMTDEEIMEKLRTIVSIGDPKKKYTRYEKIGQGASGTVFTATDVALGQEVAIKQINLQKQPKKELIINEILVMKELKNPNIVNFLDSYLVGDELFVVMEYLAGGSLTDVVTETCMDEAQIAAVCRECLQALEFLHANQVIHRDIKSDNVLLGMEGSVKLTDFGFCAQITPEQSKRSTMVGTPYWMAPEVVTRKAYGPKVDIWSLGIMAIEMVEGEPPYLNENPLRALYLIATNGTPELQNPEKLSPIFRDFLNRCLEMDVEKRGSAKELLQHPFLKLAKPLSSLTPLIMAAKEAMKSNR
Sequence of Ephrin type-A receptor 2 (P29317 whole entry): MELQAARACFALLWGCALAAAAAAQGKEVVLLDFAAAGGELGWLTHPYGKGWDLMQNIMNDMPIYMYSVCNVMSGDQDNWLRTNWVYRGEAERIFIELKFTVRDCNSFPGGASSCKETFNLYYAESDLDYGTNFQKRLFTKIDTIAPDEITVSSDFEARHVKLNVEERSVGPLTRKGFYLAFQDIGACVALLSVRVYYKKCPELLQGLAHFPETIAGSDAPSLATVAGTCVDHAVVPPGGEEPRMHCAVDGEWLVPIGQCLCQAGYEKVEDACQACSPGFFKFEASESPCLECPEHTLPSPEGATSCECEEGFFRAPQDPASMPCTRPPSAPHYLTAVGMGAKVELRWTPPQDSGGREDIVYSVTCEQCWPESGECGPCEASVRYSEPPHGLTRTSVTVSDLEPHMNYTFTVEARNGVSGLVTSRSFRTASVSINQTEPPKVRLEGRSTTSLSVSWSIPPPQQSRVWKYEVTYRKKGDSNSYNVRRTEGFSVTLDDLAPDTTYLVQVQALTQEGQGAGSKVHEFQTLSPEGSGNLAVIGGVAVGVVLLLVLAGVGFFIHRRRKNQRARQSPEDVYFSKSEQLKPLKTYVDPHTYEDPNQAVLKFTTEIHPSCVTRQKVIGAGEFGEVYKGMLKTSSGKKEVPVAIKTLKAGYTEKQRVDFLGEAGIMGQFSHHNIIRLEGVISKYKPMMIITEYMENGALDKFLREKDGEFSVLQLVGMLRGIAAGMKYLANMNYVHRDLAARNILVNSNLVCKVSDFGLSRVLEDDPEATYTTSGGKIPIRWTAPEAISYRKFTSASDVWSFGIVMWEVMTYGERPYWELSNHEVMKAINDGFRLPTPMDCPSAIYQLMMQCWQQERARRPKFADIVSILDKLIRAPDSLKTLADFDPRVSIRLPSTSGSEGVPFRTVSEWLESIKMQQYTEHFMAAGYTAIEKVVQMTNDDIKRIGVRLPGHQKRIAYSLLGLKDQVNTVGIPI
Sequence of RAC-gamma serine/threonine-protein kinase (Q9Y243 whole entry): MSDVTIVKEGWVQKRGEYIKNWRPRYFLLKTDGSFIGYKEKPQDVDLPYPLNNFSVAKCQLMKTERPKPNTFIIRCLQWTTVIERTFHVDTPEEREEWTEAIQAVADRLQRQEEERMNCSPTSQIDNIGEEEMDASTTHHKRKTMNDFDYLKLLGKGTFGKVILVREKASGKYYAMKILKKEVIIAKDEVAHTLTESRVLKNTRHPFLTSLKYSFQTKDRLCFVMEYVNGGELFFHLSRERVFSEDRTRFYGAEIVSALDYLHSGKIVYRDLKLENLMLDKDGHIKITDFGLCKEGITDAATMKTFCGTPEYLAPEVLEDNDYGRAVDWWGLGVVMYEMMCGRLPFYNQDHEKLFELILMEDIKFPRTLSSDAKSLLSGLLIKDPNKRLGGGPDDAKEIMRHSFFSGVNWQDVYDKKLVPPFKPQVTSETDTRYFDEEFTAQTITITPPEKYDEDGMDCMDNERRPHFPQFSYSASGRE
Sequence of Cyclin-dependent kinase 13 (Q14004 whole entry): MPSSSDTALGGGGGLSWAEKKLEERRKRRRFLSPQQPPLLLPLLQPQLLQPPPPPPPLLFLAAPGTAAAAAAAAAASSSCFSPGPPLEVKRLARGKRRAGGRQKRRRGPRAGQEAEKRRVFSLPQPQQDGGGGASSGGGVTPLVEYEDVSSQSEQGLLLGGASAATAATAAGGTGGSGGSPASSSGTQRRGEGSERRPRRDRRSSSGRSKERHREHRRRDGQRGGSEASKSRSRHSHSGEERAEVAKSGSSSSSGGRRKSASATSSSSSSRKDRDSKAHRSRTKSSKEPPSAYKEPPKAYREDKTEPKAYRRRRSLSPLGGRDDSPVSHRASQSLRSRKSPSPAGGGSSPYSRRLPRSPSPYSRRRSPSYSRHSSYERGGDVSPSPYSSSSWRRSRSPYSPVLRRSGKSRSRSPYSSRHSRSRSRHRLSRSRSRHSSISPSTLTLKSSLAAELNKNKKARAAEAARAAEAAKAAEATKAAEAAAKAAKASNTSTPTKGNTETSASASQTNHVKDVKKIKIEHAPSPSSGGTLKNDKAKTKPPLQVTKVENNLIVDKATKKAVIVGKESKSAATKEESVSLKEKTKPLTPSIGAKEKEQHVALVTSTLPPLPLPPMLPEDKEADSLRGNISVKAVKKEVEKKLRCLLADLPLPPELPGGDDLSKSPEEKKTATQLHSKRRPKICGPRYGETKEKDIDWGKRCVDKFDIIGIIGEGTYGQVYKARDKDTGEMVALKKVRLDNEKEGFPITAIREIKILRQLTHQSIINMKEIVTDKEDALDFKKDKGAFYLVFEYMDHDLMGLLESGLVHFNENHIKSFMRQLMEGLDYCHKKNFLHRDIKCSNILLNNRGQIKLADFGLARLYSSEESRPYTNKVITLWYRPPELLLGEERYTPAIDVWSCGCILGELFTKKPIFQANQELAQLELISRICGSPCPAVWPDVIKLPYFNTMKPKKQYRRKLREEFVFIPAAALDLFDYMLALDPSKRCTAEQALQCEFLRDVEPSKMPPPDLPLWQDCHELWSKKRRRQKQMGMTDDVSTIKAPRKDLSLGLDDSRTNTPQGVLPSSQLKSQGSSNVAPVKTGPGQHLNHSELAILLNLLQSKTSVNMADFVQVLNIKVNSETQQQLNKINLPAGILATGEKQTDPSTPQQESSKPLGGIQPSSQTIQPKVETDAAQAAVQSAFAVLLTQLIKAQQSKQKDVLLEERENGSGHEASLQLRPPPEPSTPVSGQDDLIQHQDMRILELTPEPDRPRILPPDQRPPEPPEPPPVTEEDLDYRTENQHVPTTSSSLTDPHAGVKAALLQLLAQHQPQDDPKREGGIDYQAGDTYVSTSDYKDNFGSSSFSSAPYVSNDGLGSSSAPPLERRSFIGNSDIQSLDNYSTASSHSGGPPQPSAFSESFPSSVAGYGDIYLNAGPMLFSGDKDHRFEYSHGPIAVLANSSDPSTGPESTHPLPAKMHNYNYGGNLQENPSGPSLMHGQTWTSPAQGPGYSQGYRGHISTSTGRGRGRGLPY
Sequence of Ribosomal protein S6 kinase beta-1 (P23443 whole entry): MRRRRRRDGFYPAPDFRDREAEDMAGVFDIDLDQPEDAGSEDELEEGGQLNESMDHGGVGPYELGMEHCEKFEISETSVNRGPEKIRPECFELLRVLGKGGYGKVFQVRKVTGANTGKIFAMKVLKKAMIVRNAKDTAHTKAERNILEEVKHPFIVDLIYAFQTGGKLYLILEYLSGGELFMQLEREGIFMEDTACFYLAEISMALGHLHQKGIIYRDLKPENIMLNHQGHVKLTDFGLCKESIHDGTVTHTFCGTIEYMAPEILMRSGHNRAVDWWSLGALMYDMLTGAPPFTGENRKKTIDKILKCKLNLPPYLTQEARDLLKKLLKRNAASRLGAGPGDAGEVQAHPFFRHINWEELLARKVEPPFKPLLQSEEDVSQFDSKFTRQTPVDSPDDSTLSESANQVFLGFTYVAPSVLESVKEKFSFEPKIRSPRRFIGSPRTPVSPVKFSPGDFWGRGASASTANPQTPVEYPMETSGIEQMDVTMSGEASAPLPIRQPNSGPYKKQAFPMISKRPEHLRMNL

In the case of `C=CC(=O)N1CCC[C@H](n2c(=O)n(-c3ccc(Oc4ccccc4)cc3)c3c(N)ncnc32)C1`, the Kd (in assay [1]; at Midasin; on Ephrin type-A receptor 2; in assay [2]; in assay [3]; on Myosin-14) was > 30 µM (inactive) each time. Further, the Kd in [4] was > 30 µM (inactive); in [5], > 30 µM (inactive); in [6], > 30 µM (inactive); in assay [7] it was > 30 µM (inactive); in assay [8], > 30 µM (inactive); in assay [9], 0.005 µM. In addition, the Kd (in [10]; at Activated CDC42 kinase 1) was > 30 µM (inactive) in each case.
Consider `O=C(Nc1c[nH]nc1-c1nc2cc(CN3CCOCC3)ccc2[nH]1)NC1CC1` [AT-9283], for which the Kd at Midasin was > 30 µM (inactive); in assay [2] it was 0.117 µM (active); in assay [3], > 30 µM (inactive); on Myosin-14, > 30 µM (inactive); in assay [4] it was > 30 µM (inactive); in assay [5] it was > 30 µM (inactive). Besides, the Kd is > 30 µM (inactive) in assay [6]; 2.77 µM (active) in assay [7]; > 30 µM (inactive) in assay [10]; > 30 µM (inactive) in assay [11]; > 30 µM (inactive) on Activated CDC42 kinase 1.
Turning to `COc1cc2ncnc(Oc3cccc(NC(=O)Nc4cc(C(C)(C)C(F)(F)F)on4)c3)c2cc1OC` [CEP-32496], the Kd (in assay [1]; at Midasin; in assay [2]; in assay [3]; at Myosin-14; in [4]) was > 30 µM (inactive) throughout. Moreover, the Kd in assay [5], in assay [6], in assay [7], in assay [8], in [9] and in assay [10] was > 30 µM (inactive) in each case. The Kd (in assay [11]; on Activated CDC42 kinase 1) was > 30 µM (inactive) in each case.
Turning to `COc1ccc(S(=O)(=O)N(C(C)=O)c2ccccc2/C=C/c2cc[n+]([O-])cc2)cc1` [HMN-214], the Kd (in assay [1]; at Midasin; at Ephrin type-A receptor 2; in [2]; in assay [4]; in [5]) was > 30 µM (inactive) throughout. For the same compound, the Kd in assay [6], in assay [7], in [8], in [9], in assay [10] and in [11] was > 30 µM (inactive) in each case. Moreover, the Kd on Activated CDC42 kinase 1 is > 30 µM (inactive).
For the compound `NC1(c2ccc(-c3nc4ccn5c(=O)[nH]nc5c4cc3-c3ccccc3)cc2)CCC1` [MK-2206], the Kd (in assay [1]; at Midasin; at Ephrin type-A receptor 2; in assay [2]; in assay [3]; on Myosin-14) was > 30 µM (inactive) in each case. Moreover, the Kd in assay [4], in [6], in assay [7], in [8], in [9] and in assay [10] was > 30 µM (inactive) in each case. For the same compound, the Kd (in assay [11]; on Activated CDC42 kinase 1) was > 30 µM (inactive) in each case.
For `CCOc1cc2ncc(C#N)c(Nc3ccc(F)c(Cl)c3)c2cc1NC(=O)/C=C/CN(C)C` [PELITINIB], the Kd (in assay [1]; at Midasin; at Ephrin type-A receptor 2; in assay [2]; in assay [3]; on Myosin-14) was > 30 µM (inactive) in each case. For the same compound, the Kd in assay [4], in assay [5], in assay [7], in assay [8], in assay [10] and in assay [11] was > 30 µM (inactive) throughout. Also, the Kd on Activated CDC42 kinase 1 was > 30 µM (inactive).
Consider `CNC(=O)c1cc(Oc2ccc(NC(=O)Nc3cc(C(C)(C)C)nn3-c3ccc4ncccc4c3)c(F)c2)ccn1` [REBASTINIB], for which the Kd (on Midasin; at Ephrin type-A receptor 2; in assay [2]; in [3]; on Myosin-14; in assay [4]) was > 30 µM (inactive) each time. Besides, the Kd (in [5]; in assay [7]; in assay [8]; in assay [10]; in [11]; at Activated CDC42 kinase 1) was > 30 µM (inactive) in each case.
Take `CN1CCN(CCOc2cc(OC3CCOCC3)c3c(Nc4c(Cl)ccc5c4OCO5)ncnc3c2)CC1` [SARACATINIB]: the Kd in assay [1] was > 30 µM (inactive); on Midasin, > 30 µM (inactive); at Ephrin type-A receptor 2 it was 0.729 µM (active); in [2], > 30 µM (inactive); in [3] it was > 30 µM (inactive); on Myosin-14 it was > 30 µM (inactive). For the same compound, the Kd in assay [4], in [5], in [6], in [7], in assay [8] and in assay [10] was > 30 µM (inactive) each time. For the same compound, the Kd on Activated CDC42 kinase 1 is 4.65 µM (active).
As to `CCS(=O)(=O)c1cccc(-c2cc(C(=O)NC3CCN(C)CC3)c(C)c3[nH]c4ncc(C)cc4c23)c1` [TAK-901], the Kd is > 30 µM (inactive) in assay [1]; > 30 µM (inactive) on Midasin; 0.178 µM (active) at Ephrin type-A receptor 2; > 30 µM (inactive) in [2]; > 30 µM (inactive) on Myosin-14; > 30 µM (inactive) in assay [4]. Also, the Kd in assay [5] was > 30 µM (inactive); in assay [7], > 30 µM (inactive); in [8] it was > 30 µM (inactive); in assay [9], 0.095 µM (active); in assay [10], > 30 µM (inactive); in [11], > 30 µM (inactive). Also, the dissociation constant (Kd) on Activated CDC42 kinase 1 was 0.281 µM (active).
Turning to `CC(C)c1cc(CNc2nc(Nc3cc(C4CC4)[nH]n3)cc(N3CCN(C)CC3)n2)on1` [XL-228], the Kd is > 30 µM (inactive) in [1]; > 30 µM (inactive) on Midasin; 0.032 µM (active) on Ephrin type-A receptor 2; > 30 µM (inactive) in [2]; > 30 µM (inactive) in [3]; > 30 µM (inactive) on Myosin-14. In addition, the Kd in [4] is > 30 µM (inactive); in assay [5] it was > 30 µM (inactive); in [7] it was > 30 µM (inactive); in assay [8], > 30 µM (inactive); in assay [9], 0.023 µM (active); in assay [10] it was > 30 µM (inactive). Moreover, the Kd in [11] was > 30 µM (inactive); on Activated CDC42 kinase 1, 0.076 µM (active).
